We go through 30 compounds from patent publication US5830869A, “Thiadiazole amide MMP inhibitors” (priority 1997, dated 1998).

The structures appear in SMILES notation.

In this experiment the target is Stromelysin (Homo sapiens, UniProt P08254). Put plainly: Stromelysin inhibition, in vitro particle concentration fluorescence assay (TABLE 1, MMP Inhibition Constants). The experiment is classed as biochemical. The note with it: fluorescein/biotin substrate, MMP buffer pH 7.5, room temperature, 15 min preincubation with enzyme, 1-3 h with substrate. As to the method: Inhibitory activity is evaluated in one or more of the MMP enzymes (stromelysin, gelatinase, and collagenase) in vitro using particle concentration fluorescence assay. An inhibitor binds to MMP enzymes which prevents the degradation of a substrate by stromelysin, gelatinase, or collagenase. The substrate has attached to it a fluorescein and a biotin moiety. The intact substrate then binds to an avidin-coated particle via the biotin moiety. Once the particle is washed and dried, a fluorescent signal is generated since the fluorescent group is attached to the particle. Without an inhibitor present, the substrate is degraded by MMP enzymes and the fluorescein group is removed, therefore, no fluorescent signal can be detected. Testing compounds are dissolved in DMSO to the desired concentration, then the solutions are diluted to 1:5 with MMP buffer (50 mM Tris-HCl, pH 7.5; 150 mM NaCl; 0.02% NaN3). Serial two-fold dilutions of each compound are prepared. A concentrated, activated enzyme solution is transferred into each plate of the testing compounds, and the mixture is incubated at room temperature for 15 minutes. Thawed MMP substrate is then added into all plates, and the plates are incubated in the dark for 1-3 hours at room temperature. At this point, the substrate mixture is mixed with 0.1% avidin-coated polystyrene particles. After 15 minutes, the fluorescence values are measured following filtration and washing of the beads. Ki values are then calculated.
Sequence of Stromelysin (P08254 100-477): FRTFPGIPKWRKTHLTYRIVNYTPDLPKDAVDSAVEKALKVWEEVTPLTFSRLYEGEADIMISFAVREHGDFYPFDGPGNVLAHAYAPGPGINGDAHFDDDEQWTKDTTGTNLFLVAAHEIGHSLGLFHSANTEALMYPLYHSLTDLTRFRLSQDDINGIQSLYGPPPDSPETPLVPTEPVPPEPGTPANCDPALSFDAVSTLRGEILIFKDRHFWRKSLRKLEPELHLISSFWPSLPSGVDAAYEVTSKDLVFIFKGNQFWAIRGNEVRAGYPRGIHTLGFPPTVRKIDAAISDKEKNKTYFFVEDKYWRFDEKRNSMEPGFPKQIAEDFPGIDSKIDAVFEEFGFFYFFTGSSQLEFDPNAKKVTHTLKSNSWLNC
The term Ki denotes a measure of affinity in units of concentration, obtained from inhibition or displacement. Lower therefore signals a stronger hold on the target. Compound `CC(C)(C)[C@H](NC(=O)CCc1c(F)c(F)c(F)c(F)c1F)C(=O)Nc1n[nH]c(=S)s1` [Example 27, (S)-N-[1-[[(4,5-dihydro-5-thioxo-1,3,4-thiadiazol-2-yl)amino]carbonyl]-2,2-dimethylpropyl]-2,3,4,5,6-pentafluorobenzenepropanamide] yielded a Ki of 910 nM.

In the case of `CC(C)(C)OC(=O)N[C@@H](Cc1c(F)c(F)c(F)c(F)c1F)C(=O)Nc1n[nH]c(=S)s1` [Example 28, (S)-[2-[(4,5-dihydro-5-thioxo-1,3,4-thiadiazol-2-yl)amino]-2-oxo-1-[(pentafluorophenyl)methyl]ethyl]carbamic acid 1,1-dimethylethyl ester], the affinity, expressed as Ki, was 2220 nM.

In turn, `CC(C)(C)OC(=O)N1CCC[C@H]1C(=O)N[C@H](C(=O)Nc1n[nH]c(=S)s1)C(C)(C)C` [Example 29, 1-[(1,1-dimethylethoxy)carbonyl]-L-prolyl-N-(4,5-dihydro-5-thioxo-1,3,4-thiadiazol-2-yl)-3-methyl-L-valinamide] gave a Ki of 1470 nM.

Compound `O=C(CCc1ccccc1)N[C@@H](Cc1c(F)c(F)c(F)c(F)c1F)C(=O)Nc1n[nH]c(=S)s1` [Example 30, (S)-α-N-(4,5-dihydro-5-thioxo-1,3,4-thiadiazol-2-yl)-2,3,4,5,6-pentafluoro-[(1-oxo-3-phenylpropyl)amino]benzenepropanamide] returned a Ki of 970 nM.

The compound `O=C(NCCC[C@H](NC(=O)OCc1ccccc1)C(=O)Nc1n[nH]c(=S)s1)OCc1ccccc1` [Example 31, (S)-[1-[[(4,5-dihydro-5-thioxo-1,3,4-thiadiazol-2-yl)amino]carbonyl]-1,4-butanediyl]bis carbamic acid bis(phenylmethyl) ester] had a Ki of 2810 nM.

On to `CC(C)(C)[C@H](NC(=O)Cc1c[nH]c2ccccc12)C(=O)Nc1n[nH]c(=S)s1` [Example 32], for which the affinity, expressed as Ki, was 410 nM.

As for `O=C(N[C@@H](Cc1c[nH]c2ccccc12)C(=O)Nc1n[nH]c(=S)s1)OCc1ccccc1` [Example 33, (S)-[2-[(4,5-dihydro-5-thioxo-1,3,4-thiadiazol-2-yl)amino]-1-(1H-indol-3-yl-methyl)-2-oxoethyl]-carbamic acid, phenylmethyl ester], affinity was put at a Ki of 10200 nM.

`O=C(N[C@@H](Cc1ccccc1)C(=O)Nc1n[nH]c(=S)s1)OCc1ccccc1` [Example 34, (S)-[2-[(4,5-dihydro-5-thioxo-1,3,4-thiadiazol-2-yl)amino]-2-oxo-1-(phenylmethyl)ethyl]carbamic acid phenylmethyl ester]: the affinity corresponds to a Ki of 6090 nM.

`CC(C)C[C@H](NC(=O)OCc1ccccc1)C(=O)Nc1n[nH]c(=S)s1` [Example 35, (S)-[1-[[(4,5-dihydro-5-thioxo-1,3,4-thiadiazol-2-yl)amino]carbonyl]-3-methylbutyl]carbamic acid phenylmethyl ester] came in with a Ki of 2220 nM.

In turn, `CC(C)[C@H](NC(=O)OCc1ccccc1)C(=O)Nc1n[nH]c(=S)s1` [Example 36, (S)-[1-[[(4,5-dihydro-5-thioxo-1,3,4-thiadiazol-2-yl)amino]carbonyl]-2-methylpropyl]carbamic acid phenylmethyl ester] yielded a Ki of 1160 nM.

Turning to `CC(C)(C)[C@H](NC(=O)OCC1c2ccccc2-c2ccccc21)C(=O)Nc1n[nH]c(=S)s1` [Example 37, (S)-[1-[[(4,5-dihydro-5-thioxo-1,3,4-thiadiazol-2-yl)amino]carbonyl]-2,2-dimethylpropyl]carbamic acid 9H-fluoren-9-yl-methyl ester], affinity was put at a Ki of 120 nM.

With `O=C(NCC(C(=O)Nc1n[nH]c(=S)s1)c1ccccc1)OCc1ccccc1` (stereo not drawn) [Example 38, [3-[(4,5-dihydro-5-thioxo-1,3,4-thiadiazol-2-yl)amino]-3-oxo-2-phenylpropyl]carbamic acid phenylmethyl ester], the inhibition constant (Ki) came out at 2270 nM.

Turning to `O=C(NCC(Cc1ccccc1)C(=O)Nc1n[nH]c(=S)s1)OCc1ccccc1` (stereo not drawn) [Example 39, [3-[(4,5-dihydro-5-thioxo-1,3,4-thiadiazol-2-yl)amino]-3-oxo-2-(phenylmethyl)propyl]carbamic acid phenylmethyl ester], the Ki turned out to be 1320 nM.

Compound `CC(C)(C)C(CC(=O)Nc1n[nH]c(=S)s1)NC(=O)OCc1ccccc1` (stereo not drawn) [Example 40, [3-[(4,5-dihydro-5-thioxo-1,3,4-thiadiazol-2-yl)amino]-3-oxo-1-(1,1-dimethylethyl)propyl]carbamic acid phenylmethyl ester] showed a Ki of 11100 nM.

As to `O=C(CC(NC(=O)OCc1ccccc1)c1ccccc1)Nc1nnc(S)s1` (stereo not drawn) [Example 41, [3-[(4,5-dihydro-5-thioxo-1,3,4-thiadiazol-2-yl)amino]-3-oxo-1-phenylpropyl]carbamic acid phenylmethyl ester], the Ki was 400 nM.

In turn, `O=C(CC(NC(=O)c1ccccc1)c1ccccc1)Nc1n[nH]c(=S)s1` (stereo not drawn) [Example 42, β-(benzoylamino)-N-(4,5-dihydro-5-thioxo-1,3,4-thiadiazol-2-yl)benzenepropanamide] showed a Ki of 1360 nM.

The compound `O=C(CC(NC(=O)Cc1ccccc1)c1ccccc1)Nc1n[nH]c(=S)s1` (stereo not drawn) [Example 43, N-(4,5-dihydro-5-thioxo-1,3,4-thiadiazol-2-yl)-β-[(phenylacetyl)amino]benzenepropanamide] returned a Ki of 655 nM.

The compound `O=C(CC(NC(=O)CCc1ccccc1)c1ccccc1)Nc1n[nH]c(=S)s1` (stereo not drawn) [Example 44] yielded a Ki of 690 nM.

In turn, `CC(C)(C)OC(=O)NC(CC(=O)Nc1n[nH]c(=S)s1)c1ccccc1` (stereo not drawn) [Example 45, [3-[(4,5-dihydro-5-thioxo-1,3,4-thiadiazol-2-yl)amino]-3-oxo-1-phenylpropyl]carbamic acid 1,1-dimethylethyl ester] displayed a Ki of 720 nM.

For the compound `O=C(CC(NC(=O)OCC1c2ccccc2-c2ccccc21)c1ccccc1)Nc1n[nH]c(=S)s1` (stereo not drawn) [Example 46, [3-[(4,5-dihydro-5-thioxo-1,3,4-thiadiazol-2-yl)amino]-3-oxo-1-phenylpropyl]carbamic acid 9H-fluoren-9-yl methyl ester], the Ki was 440 nM.

In turn, `COCC(=O)NC(CC(=O)Nc1n[nH]c(=S)s1)c1ccccc1` (stereo not drawn) [Example 47, N-(4,5-dihydro-5-thioxo-1,3,4-thiadiazol-2-yl)-β-[(methoxyacetyl)amino]benzenepropanamide] gave a Ki of 1360 nM.

For the compound `O=C(CC(NC(=O)COc1ccccc1)c1ccccc1)Nc1n[nH]c(=S)s1` (stereo not drawn) [Example 48, N-(4,5-dihydro-5-thioxo-1,3,4-thiadiazol-2-yl)-β-[(phenoxyacetyl)amino]benzenepropanamide], affinity was put at a Ki of 313 nM.

In turn, `O=C(CC(NC(=O)COCc1ccccc1)c1ccccc1)Nc1n[nH]c(=S)s1` (stereo not drawn) [Example 49, N-(4,5-dihydro-5-thioxo-1,3,4-thiadiazol-2-yl)-β-[(phenylmethoxyacetyl)amino]benzenepropanamide] came in with a Ki of 840 nM.

Turning to `O=C(C[C@H](NC(=O)OCc1ccccc1)c1ccccc1)Nc1n[nH]c(=S)s1` [Example 51, (S)-[3-[(4,5-dihydro-5-thioxo-1,3,4-thiadiazol-2-yl)amino]-3-oxo-1-phenylpropyl]carbamic acid phenylmethyl ester], affinity was put at a Ki of 1500 nM.

`O=C(C[C@@H](NC(=O)OCc1ccccc1)c1ccccc1)Nc1n[nH]c(=S)s1` [Example 52, (R)-[3-[(4,5-dihydro-5-thioxo-1,3,4-thiadiazol-2-yl)amino]-3-oxo-1-phenylpropyl]carbamic acid phenylmethyl ester] came in with a Ki of 260 nM.

`O=C(N[C@H]1CCCC[C@H]1C(=O)Nc1n[nH]c(=S)s1)OCC1c2ccccc2-c2ccccc21` [Example 53, (1S-cis-)-[2-[[(4,5-dihydro-5-thioxo-1,3,4-thiadiazol-2-yl)amino]carbonyl]cyclohexyl]carbamic acid 9H-fluoren-9-yl-methyl ester] gave an inhibition constant Ki of 15000 nM.

`CC(C)C[C@@H](CC(=O)Nc1n[nH]c(=S)s1)NC(=O)OCc1ccccc1` [Example 54, (S)-[1-[2-[[4,5-dihydro-5-thioxo-1,3,4-thiadiazol-2-yl)amino]-2-oxoethyl]-3-methylbutyl]carbamic acid phenylmethyl ester] gave an inhibition constant (Ki) of 1200 nM.

`CCOC(=O)C(Cc1ccccc1)C(=O)Nc1n[nH]c(=S)s1` (stereo not drawn) [Example 57, ethyl α-[[(4,5-dihydro-5-thioxo-1,3,4-thiadiazol-2yl)amino]carbonyl]benzenepropanoate]: the Ki came out at 4050 nM.

Turning to `CCOC(=O)C(C(=O)Nc1n[nH]c(=S)s1)C(C)(C)C` (stereo not drawn) [Example 58, ethyl α-[[(4,5-dihydro-5-thioxo-1,3,4-thiadiazol-2-yl)amino]carbonyl]-3,3-dimethylbutanoate], the affinity, expressed as Ki, was 5000 nM.

On to `CNC(=O)C(C(=O)Nc1n[nH]c(=S)s1)C(C)(C)C` (stereo not drawn) [Example 59, N-methyl-α-[[(4,5-dihydro-5-thioxo-1,3,4-thiadiazol-2-yl)amino]carbonyl]-3,3-dimethylbutanamide], for which the Ki was 4300 nM.
